In the test the test system is NRF2 (NQO1 activity as marker for NRF2 activation), BEAS-2B cells. As to the kind of experiment: BEAS-2B NQO1 MTT Assay. Conditions: Homo sapiens, EC50 of NQO1 specific activity induction, 48 hours incubation, read-out: EC50. The format is cell-based. Put shortly:
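BEAS-2B cells were exposed to compound for 48 h at 37° C, 5% CO2, then lysed. NQO1 activity was measured kinetically by MTT reduction at 570 nm over 30 minutes; EC50 came from 3-parameter fit of Delta OD/min versus log concentration.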

In general, EC50 refers to the concentration that produces a half-maximal response. As to `CC[C@@H]1CN(Cc2cc([C@@H](c3ccc4c(nnn4CC)c3C)C(C)(C)NC(=O)c3cncc(F)c3)ccc2C)S(=O)(=O)c2ccccc2O1` [Example 154, N-((S)-1-(3-(((R)-4-Ethyl-1,1-dioxido-3,4-dihydro-2H-benzo[b][1,4,5]oxathiazepin-2-yl)methyl)-4-methylphenyl)-1-(1-ethyl-4-methyl-1H-benzo[d][1,2,3]triazol-5-yl)-2-methylpropan-2-yl)-5-fluoronicotinamide], the EC50 was 10 to 100 nM.
For the compound `CC[C@@H]1CN(Cc2cc([C@@H](c3ccc4c(nnn4CC)c3C)C(C)(C)NC(=O)c3cncc(C(F)(F)F)c3)ccc2C)S(=O)(=O)c2ccccc2O1` [Example 155, N-((S)-1-(3-(((R)-4-Ethyl-1,1-dioxido-3,4-dihydro-2H-benzo[b][1,4,5]oxathiazepin-2-yl)methyl)-4-methylphenyl)-1-(1-ethyl-4-methyl-1H-benzo[d][1,2,3]triazol-5-yl)-2-methylpropan-2-yl)-5-(trifluoromethyl) nicotinamide], the EC50 lay within 10 to 100 nM.
For `CC[C@@H]1CN(Cc2cc([C@@H](c3ccc4c(nnn4CC)c3C)C(C)(C)NC(=O)c3ccc(=O)[nH]c3)ccc2C)S(=O)(=O)c2ccccc2O1` [Example 156, N-((S)-1-(3-(((R)-4-Ethyl-1,1-dioxido-3,4-dihydro-2H-benzo[b][1,4,5]oxathiazepin-2-yl)methyl)-4-methylphenyl)-1-(1-ethyl-4-methyl-1H-benzo[d][1,2,3]triazol-5-yl)-2-methylpropan-2-yl)-6-oxo-1,6-dihydropyridine-3-carboxamide], the concentration giving a half-maximal response (EC50) is 100 to 1000 nM.
Take `CC[C@@H]1CN(Cc2cc([C@@H](c3ccc4c(nnn4CC)c3C)C(C)(C)NC(=O)c3cnc(S(C)(=O)=O)nc3)ccc2C)S(=O)(=O)c2ccccc2O1` [Example 157, N—((S)-1-(3-(((R)-4-Ethyl-1,1-dioxido-3,4-dihydro-2H-benzo[b][1,4,5]oxathiazepin-2-yl)methyl)-4-methylphenyl)-1-(1-ethyl-4-methyl-1H-benzo[d][1,2,3]triazol-5-yl)-2-methylpropan-2-yl)-2-(methylsulfonyl)pyrimidine-5-carboxamide]: the EC50 was 100 to 1000 nM.
In the case of `CC[C@@H]1CN(Cc2cc([C@@H](c3ccc4c(nnn4CC)c3C)C(C)(C)NC(=O)c3cnc(N4CCC4)nc3)ccc2C)S(=O)(=O)c2ccccc2O1` [Example 158, 2-(Azetidin-1-yl)-N—((S)-1-(3-(((R)-4-ethyl-1,1-dioxido-3,4-dihydro-2H-benzo[b][1,4,5]oxathiazepin-2-yl)methyl)-4-methylphenyl)-1-(1-ethyl-4-methyl-1H-benzo[d][1,2,3]triazol-5-yl)-2-methylpropan-2-yl)pyrimidine-5-carboxamide], the EC50 lay in the range of 10 to 100 nM.
Under `CC[C@@H]1CN(Cc2cc([C@@H](c3ccc4c(nnn4CC)c3C)C(C)(C)NC(=O)c3cnc(N4CCCC4)nc3)ccc2C)S(=O)(=O)c2ccccc2O1` [Example 159, N-((S)-1-(3-(((R)-4-Ethyl-1,1-dioxido-3,4-dihydro-2H-benzo[b][1,4,5]oxathiazepin-2-yl)methyl)-4-methylphenyl)-1-(1-ethyl-4-methyl-1H-benzo[d][1,2,3]triazol-5-yl)-2-methylpropan-2-yl)-2-(pyrrolidin-1-yl)pyrimidine-5-carboxamide] stands 10 to 100 nM; under `CC[C@@H]1CN(Cc2cc([C@@H](c3ccc4c(nnn4CC)c3C)C(C)(C)NC(=O)c3cnc(OCCCOC)nc3)ccc2C)S(=O)(=O)c2ccccc2O1` [Example 160, N-((S)-1-(3-(((R)-4-Ethyl-1,1-dioxido-3,4-dihydro-2H-benzo[b][1,4,5]oxathiazepin-2-yl)methyl)-4-methylphenyl)-1-(1-ethyl-4-methyl-1H-benzo[d][1,2,3]triazol-5-yl)-2-methylpropan-2-yl)-2-(3-methoxypropoxy)pyrimidine-5-carboxamide], 1 to 10 nM; under `CC[C@@H]1CN(Cc2cc([C@@H](c3ccc4c(nnn4CC)c3C)C(C)(C)NC(=O)c3cnc(OCCO)nc3)ccc2C)S(=O)(=O)c2ccccc2O1` [Example 161, N-((S)-1-(3-(((R)-4-Ethyl-1,1-dioxido-3,4-dihydro-2H-benzo[b][1,4,5]oxathiazepin-2-yl)methyl)-4-methylphenyl)-1-(1-ethyl-4-methyl-1H-benzo[d][1,2,3]triazol-5-yl)-2-methylpropan-2-yl)-2-(2-hydroxyethoxy)pyrimidine-5-carboxamide], 10 to 100 nM.
Under `CC[C@@H]1CN(Cc2cc([C@@H](c3ccc4c(nnn4CC)c3C)C(C)(C)NC(=O)c3cnc(N(C)C)nc3)ccc2C)S(=O)(=O)c2ccccc2O1` [Example 162] stands 10 to 100 nM.
To `CCOCCOc1ncc(C(=O)NC(C)(C)[C@@H](c2ccc(C)c(CN3C[C@@H](CC)Oc4ccccc4S3(=O)=O)c2)c2ccc3c(nnn3CC)c2C)cn1` [Example 163, 2-(2-Ethoxyethoxy)-N-((S)-1-(3-(((R)-4-ethyl-1,1-dioxido-3,4-dihydro-2H-benzo[b][1,4,5]oxathiazepin-2-yl)methyl)-4-methylphenyl)-1-(1-ethyl-4-methyl-1H-benzo[d][1,2,3]triazol-5-yl)-2-methylpropan-2-yl)pyrimidine-5-carboxamide] belongs 1 to 10 nM; to `CC[C@@H]1CN(Cc2cc([C@@H](c3ccc4c(nnn4CC)c3C)C(C)(C)NC(=O)c3cnc(N4CCOCC4)nc3)ccc2C)S(=O)(=O)c2ccccc2O1` [Example 164, N-((S)-1-(3-(((R)-4-Ethyl-1,1-dioxido-3,4-dihydro-2H-benzo[b][1,4,5]oxathiazepin-2-yl)methyl)-4-methylphenyl)-1-(1-ethyl-4-methyl-1H-benzo[d][1,2,3]triazol-5-yl)-2-methylpropan-2-yl)-2-morpholinopyrimidine-5-carboxamide], 10 to 100 nM.
On to `CC[C@@H]1CN(Cc2cc([C@@H](c3ccc4c(nnn4CC)c3C)C(C)(C)NC(=O)c3cnc(N4CCN(C)CC4)nc3)ccc2C)S(=O)(=O)c2ccccc2O1` [Example 165, N-((S)-1-(3-(((R)-4-Ethyl-1,1-dioxido-3,4-dihydro-2H-benzo[b][1,4,5]oxathiazepin-2-yl)methyl)-4-methylphenyl)-1-(1-ethyl-4-methyl-1H-benzo[d][1,2,3]triazol-5-yl)-2-methylpropan-2-yl)-2-(4-methylpiperazin-1-yl)pyrimidine-5-carboxamide], for which the concentration for a half-maximal effect (EC50) is 10 to 100 nM.
To `CC[C@@H]1CN(Cc2cc([C@@H](c3ccc4c(nnn4CC)c3C)C(C)(C)NC(=O)c3cccnc3)ccc2C)S(=O)(=O)c2cccnc2O1` [Example 166, N—((S)-1-(3-(((R)-4-Ethyl-1,1-dioxido-3,4-dihydro-2H-pyrido[2,3-b][1,4,5]oxathiazepin-2-yl)methyl)-4-methylphenyl)-1-(1-ethyl-4-methyl-1H-benzo[d][1,2,3]triazol-5-yl)-2-methylpropan-2-yl)nicotinamide] belongs 1 to 10 nM.
Consider `CC[C@@H]1CN(Cc2cc([C@@H](c3ccc4c(nnn4CC)c3C)C(C)(C)N(C)C(=O)c3cncnc3)ccc2C)S(=O)(=O)c2ccccc2O1` [Example 167, N—((S)-1-(3-(((R)-4-Ethyl-1,1-dioxido-3,4-dihydro-2H-benzo[b][1,4,5]oxathiazepin-2-yl)methyl)-4-methylphenyl)-1-(1-ethyl-4-methyl-1H-benzo[d][1,2,3]triazol-5-yl)-2-methylpropan-2-yl)-N-methylpyrimidine-5-carboxamide], for which the EC50 fell in the range of 10 to 100 nM.
Regarding `CC[C@@H]1CN(Cc2cc([C@H](CC(=O)N(C)c3cccnc3)c3ccc4c(nnn4CC)c3C)ccc2C)S(=O)(=O)c2cccnc2O1` [Example 169, (S)-3-(3-(((R)-4-ethyl-1,1-dioxido-3,4-dihydro-2H-pyrido[2,3-b][1,4,5]oxathiazepin-2-yl)methyl)-4-methylphenyl)-3-(1-ethyl-4-methyl-1H-benzo[d][1,2,3]triazol-5-yl)-N-methyl-N-(pyridin-3-yl)propanamide], the concentration giving a half-maximal response (EC50) is 100 to 1000 nM.
Under `CC[C@@H]1CN(Cc2cc([C@H](CC(=O)Nc3ccccc3)c3ccc4c(nnn4CC)c3C)ccc2C)S(=O)(=O)c2cccnc2O1` [Example 170, (S)-3-(3-(((R)-4-ethyl-1,1-dioxido-3,4-dihydro-2H-pyrido[2,3-b][1,4,5]oxathiazepin-2-yl)methyl)-4-methylphenyl)-3-(1-ethyl-4-methyl-1H-benzo[d][1,2,3]triazol-5-yl)-N-phenylpropanamide] stands 100 to 1000 nM.
To `CC[C@@H]1CN(Cc2cc([C@H](CC(=O)NC3CCCC3)c3ccc4c(nnn4CC)c3C)ccc2C)S(=O)(=O)c2cccnc2O1` [Example 171, (S)-N-cyclopentyl-3-(3-(((R)-4-ethyl-1,1-dioxido-3,4-dihydro-2H-pyrido[2,3-b][1,4,5]oxathiazepin-2-yl)methyl)-4-methylphenyl)-3-(1-ethyl-4-methyl-1H-benzo[d][1,2,3]triazol-5-yl)propanamide] belongs 100 to 1000 nM.
`CC[C@@H]1CN(Cc2cc([C@H](CC(=O)Nc3ccc(OC)nc3)c3ccc4c(nnn4CC)c3C)ccc2C)S(=O)(=O)c2cccnc2O1` [Example 172, (S)-3-(3-(((R)-4-ethyl-1,1-dioxido-3,4-dihydro-2H-pyrido[2,3-b][1,4,5]oxathiazepin-2-yl)methyl)-4-methylphenyl)-3-(1-ethyl-4-methyl-1H-benzo[d][1,2,3]triazol-5-yl)-N-(6-methoxypyridin-3-yl)propanamide]: the EC50 was 100 to 1000 nM.
With `Cc1ccc([C@@H](c2ccc3c(nnn3C)c2C)C(C)(C)C(=O)Nc2cccnc2)cc1Cn1ccnc1CC1CCCCCC1` [Example 173, (S)-3-(3-((2-(cycloheptylmethyl)-1H-imidazol-1-yl)methyl)-4-methylphenyl)-3-(1,4-dimethyl-1H-benzo[d][1,2,3]triazol-5-yl)-2,2-dimethyl-N-(pyridin-3-yl)propanamide], the EC50 was in the range of 10 to 100 nM.

The record behind these values is US11078216B2, “Bisaryl amides as NRF2 activators” (GLAXOSMITHKLINE INTELLECTUAL PROPERTY DEVELOPMENT LIMITED, priority 2016, dated 2021).
